Laboratory results: patent publication US8633206B2, “Pyrrolo[2,3-D]pyrimidine compounds” (Pfizer Inc., priority 2009, dated 2014)

Tests used:
Type in all cases: biochemical
[1] = molecular target: JAK3 (Homo sapiens (Human), UniProt P52333); experiment: JAK enzymatic assay (peptide mobility shift), JAK3; settings: recombinant JAK3 1 nM, JAKtide peptide, 90 minutes
[2] = molecular target: JAK1 (Homo sapiens (Human), UniProt P23458); experiment: JAK enzymatic assay (peptide mobility shift), JAK1; settings: recombinant JAK1 20 nM, IRS-1 peptide, 240 minutes
Chain of JAK1 (P23458 whole entry): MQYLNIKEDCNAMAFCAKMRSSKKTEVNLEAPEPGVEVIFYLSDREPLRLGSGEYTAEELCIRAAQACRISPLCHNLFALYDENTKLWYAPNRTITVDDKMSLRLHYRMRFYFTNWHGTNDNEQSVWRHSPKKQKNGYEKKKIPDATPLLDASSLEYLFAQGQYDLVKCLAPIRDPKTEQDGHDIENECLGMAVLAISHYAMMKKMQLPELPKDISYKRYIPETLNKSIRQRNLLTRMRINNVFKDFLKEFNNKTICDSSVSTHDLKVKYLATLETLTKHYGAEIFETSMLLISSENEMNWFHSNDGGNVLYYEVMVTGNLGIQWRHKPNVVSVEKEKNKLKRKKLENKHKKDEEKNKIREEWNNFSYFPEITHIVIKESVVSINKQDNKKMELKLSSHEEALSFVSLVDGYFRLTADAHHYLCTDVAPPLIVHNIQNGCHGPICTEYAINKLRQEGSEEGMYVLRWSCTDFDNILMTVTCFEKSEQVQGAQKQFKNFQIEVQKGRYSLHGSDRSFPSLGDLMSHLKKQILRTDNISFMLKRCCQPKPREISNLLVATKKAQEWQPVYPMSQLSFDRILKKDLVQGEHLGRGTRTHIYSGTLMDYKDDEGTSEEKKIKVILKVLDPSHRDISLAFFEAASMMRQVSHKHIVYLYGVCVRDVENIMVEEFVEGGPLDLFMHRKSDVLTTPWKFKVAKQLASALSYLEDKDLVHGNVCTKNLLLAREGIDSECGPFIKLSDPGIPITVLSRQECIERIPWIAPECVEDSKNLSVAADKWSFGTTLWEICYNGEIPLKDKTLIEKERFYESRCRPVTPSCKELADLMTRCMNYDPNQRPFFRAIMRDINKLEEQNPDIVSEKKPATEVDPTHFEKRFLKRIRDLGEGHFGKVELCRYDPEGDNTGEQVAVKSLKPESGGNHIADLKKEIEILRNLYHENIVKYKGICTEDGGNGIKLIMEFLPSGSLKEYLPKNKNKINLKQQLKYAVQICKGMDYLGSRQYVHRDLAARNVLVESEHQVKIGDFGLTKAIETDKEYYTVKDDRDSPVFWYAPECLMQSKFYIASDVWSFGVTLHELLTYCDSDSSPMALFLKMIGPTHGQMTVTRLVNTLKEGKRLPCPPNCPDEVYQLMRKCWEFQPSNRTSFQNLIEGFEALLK

[3] = molecular target: JAK2 (Homo sapiens (Human), UniProt O60674); experiment: JAK enzymatic assay (peptide mobility shift), JAK2; settings: recombinant JAK2 2 nM, JAKtide peptide, 150 minutes
Chain of JAK2 (O60674 808-1132): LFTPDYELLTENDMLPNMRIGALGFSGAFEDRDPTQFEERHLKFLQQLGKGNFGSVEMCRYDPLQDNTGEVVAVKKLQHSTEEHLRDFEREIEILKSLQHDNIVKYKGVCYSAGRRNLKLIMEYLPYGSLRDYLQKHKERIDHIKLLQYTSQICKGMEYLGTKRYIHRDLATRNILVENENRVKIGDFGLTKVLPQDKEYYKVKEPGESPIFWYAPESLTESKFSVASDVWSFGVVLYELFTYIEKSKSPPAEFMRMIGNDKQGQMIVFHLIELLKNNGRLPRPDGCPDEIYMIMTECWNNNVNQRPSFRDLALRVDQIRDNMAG

Chain of JAK3 (P52333 781-1124): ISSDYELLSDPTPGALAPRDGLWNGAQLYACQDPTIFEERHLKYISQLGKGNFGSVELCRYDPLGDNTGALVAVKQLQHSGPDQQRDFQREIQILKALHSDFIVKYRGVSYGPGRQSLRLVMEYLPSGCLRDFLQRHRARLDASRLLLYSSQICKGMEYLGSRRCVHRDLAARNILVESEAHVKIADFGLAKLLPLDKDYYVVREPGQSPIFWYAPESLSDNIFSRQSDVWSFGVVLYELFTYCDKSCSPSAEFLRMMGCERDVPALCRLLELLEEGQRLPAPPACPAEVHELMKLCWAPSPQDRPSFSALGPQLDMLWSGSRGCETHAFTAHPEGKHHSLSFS

Structure (SMILES)	IC50 [1] [nM]	IC50 [2] [nM]	IC50 [3] [nM]
CN(c1ncnc2[nH]ccc12)[C@H]1CC[C@H](CS(=O)(=O)N2CC(c3nnn[nH]3)C2)CC1 [Example 113, N-methyl-N-[trans-4-({[3-(1H-tetrazol-5-yl)azetidin-1-yl]sulfonyl}methyl)-cyclohexyl]-7H-pyrrolo[2,3-d]pyrimidin-4-amine]	111	1.55	9.99
CCN(CC)C(=O)CO[C@@H]1CCN(S(=O)(=O)C[C@H]2CC[C@H](N(C)c3ncnc4[nH]ccc34)CC2)C1 [Example 101, N,N-diethyl-2-({(3R)-1-[({trans-4-[methyl(7H-pyrrolo[2,3-d]pyrimidin-4-yl)amino]cyclohexyl}-methyl)sulfonyl]pyrrolidin-3-yl}oxy)acetamide]	584	4.86	35.9
CN(c1ncnc2[nH]ccc12)[C@H]1CC[C@H](CS(=O)(=O)N2CCC(CC(N)=O)CC2)CC1 [Example 55, 2-{1-[({trans-4-[methyl(7H-pyrrolo[2,3-d]pyrimidin-4-yl)amino]cyclohexyl}-methyl)sulfonyl]piperidin-4-yl}-acetamide]	681	20.1	84.8
CNS(=O)(=O)[C@H]1CCN(S(=O)(=O)C[C@H]2CC[C@H](N(C)c3ncnc4[nH]ccc34)CC2)C1 [Example 81, N-methyl-1-[({trans-4-[methyl(7H-pyrrolo[2,3-d]-pyrimidin-4-yl)amino]-cyclohexyl}methyl)sulfonyl] pyrrolidine-3-sulfonamide]	90.6	2.78	24.8
CN(c1ncnc2[nH]ccc12)[C@H]1CC[C@H](CS(=O)(=O)N2CCC[C@@H](OC(=O)C(C)(C)C)C2)CC1 [Example 134, trans-(R)-1-((4-(methyl(7H-pyrrolo[2,3-d]pyrimidin-4-yl)amino)cyclohexyl)methylsulfonyl)piperidin-3-yl pivalate]	3.89	0.0227	0.129
CN(c1ncnc2[nH]ccc12)[C@H]1CC[C@H](CS(=O)(=O)N2CC[C@H](S(=O)(=O)Cc3ccccc3)C2)CC1 [Example 82, N-[trans-4-({[3-(benzyl-sulfonyl)pyrrolidin-1-yl]sulfonyl}-methyl)-cyclohexyl]-N-methyl-7H-pyrrolo[2,3-d]pyrimidin-4-amine]	146	7.34	17.4

The next lines start with the values.

IC50 [1] [nM]	IC50 [2] [nM]	IC50 [3] [nM]	Structure (SMILES)
286	5.5	37.4	CN(c1ncnc2[nH]ccc12)[C@H]1CC[C@H](CS(=O)(=O)N2CC[C@H](c3ccccc3F)C2)CC1 [Example 93, N-[trans-4-({[3-(2-fluorophenyl)pyrrolidin-1-yl]sulfonyl}methyl)cyclo-hexyl]-N-methyl-7H-pyrrolo[2,3-d]pyrimidin-4-amine]
495	17.3	55.2	CC[C@@]1(CO)CCN(S(=O)(=O)C[C@H]2CC[C@H](N(C)c3ncnc4[nH]ccc34)CC2)C1 [Example 74, {3-ethyl-1-[({trans-4-[methyl(7H-pyrrolo[2,3-d]-pyrimidin-4-yl)amino]-cyclohexyl}methyl)sulfonyl]-pyrrolidin-3-yl}methanol]
85.6	1.36	13.1	CN(c1ncnc2[nH]ccc12)[C@H]1CC[C@H](CS(=O)(=O)N2CC[C@@](O)(CSc3ccccn3)C2)CC1 [Example 97, 1-[({trans-4-[methyl(7H-pyrrolo[2,3-d]pyrimidin-4-yl)-amino]cyclohexyl}-methyl)sulfonyl]-3-[(pyridin-2-ylthio)-methyl]pyrrolidin-3-ol]
